Experimental data taken from a melting point compilation (Tetko et al.; mined from patent text by program, amines drawn as free bases though some values may be those of a salt).

Row | Compound | melting point [°C]
1 | CCOC(=O)Cc1cc(C)c(C(=O)c2ccc([N+](=O)[O-])cc2)n1C | 148 to 149
2 | C[C@]1(COc2ccc(N3CCC(OCc4ccc(OC(F)(F)F)cc4)CC3)cc2)Cn2cc([N+](=O)[O-])nc2O1 | 214 to 218
3 | COc1cc(Cl)c(/C(=N\O)c2ccccc2F)cc1Cl | 188
4 | CN(CS(C)(=O)=O)C(=O)Nc1ccc(Cl)c(Cl)c1 | 159
5 | COC(=O)c1nc(-c2ccc(Cl)c(OC)c2F)nc(N)c1Br | 173 to 175
6 | Cc1ccc2c(c1)NC(=O)[C@H](N)C[C@@H]2C1CCCCC1 (relative stereo) | 64 to 66
7 | CCCCCCCCCCCc1[nH]c2ccc(C(=O)OC)cc2c1C=O | 162 to 165
8 | CCc1csc2ccc3[nH]c4c(c3c12)CN(C)CC4 | 181 to 182
9 | COc1ccc(C(=O)C2CCC(C)(C(=O)O)C2(C)C)c(OC)c1 (stereo not given) | 145
10 | O=C(NCc1cccnc1)[NH+]([O-])c1cccc2ccccc12 (stereo not given) | 188
11 | CC(C)OC(=O)c1cc(N)ccc1Cl | 50.5 to 52
12 | CCc1ccc(C(=O)Sc2ccccn2)cc1 | 48 to 50
13 | O=[N+]([O-])c1c(Br)cccc1CS(=O)(=O)c1ccccc1 | 138 to 141
14 | S=C=Nc1cc(-c2nc(-c3ccco3)no2)ccc1Cl | 131 to 132
15 | CCOC(=O)c1sc2nc(SCCCN3CCN(c4ccccn4)CC3)[nH]c(=O)c2c1C | 160 to 162
16 | O=C(NC(=O)c1ccc(F)cc1Cl)Nc1ccc(C(F)(F)F)cc1F | 194
17 | CCCCCCCCC1COC(c2ccc(O)cc2)OC1 (stereo not given) | 96 to 97
18 | C=C(n1c(=O)n(CCCl)c2ccccc21)C(F)(F)F | 158 to 160
19 | O=C1NCCNC1Cc1ccccc1 (stereo not given) | 92 to 93
20 | CS(=O)(=O)NC(=O)c1cccc(-c2ccc(Cl)c(C(=O)NCC34CC5CC(CC(C5)C3)C4)c2)n1 | 160 to 162
21 | CCCN(CCC)C(N)=O | 69
22 | CCCNC(=S)NS(=O)(=O)c1cc2c(cc1OC)OCCC2CNC(=O)N1CC(C)=C(CC)C1=O (stereo not given) | 96 to 98

Row | Compound | melting point [°C]
23 | CC(=O)NCC1CN(c2ccc(-n3cnc(Cn4cccn4)c3)c(F)c2)C(=O)O1 (stereo not given) | 158 to 160
24 | COCOCc1c([N+](=O)[O-])cc(OC)c(OC)c1OC | 39 to 40
25 | Cn1c(=O)[nH]c(=O)c2c1ncn2CC#N | 285 to 287
26 | CS(=O)(=O)c1ccc(-c2oc(CO)cc(=O)c2Oc2ccc(F)cc2F)cc1 | 205
27 | COc1ccc(-c2nc(C(=O)O)cc(Cl)c2Cl)cc1 | 164 to 181
28 | Nc1ccccc1Oc1ccccc1-c1ccccc1Oc1ccccc1N | 175
29 | CCCCNC(P(=O)(O)O)P(=O)(O)O | 188 to 189
30 | CC(C)(C)C(=O)C=Cc1ccc2c(c1)OCO2 | 94 to 96
31 | CCOC(=O)c1c(O)c2cc(Cl)ccc2c(=O)n1C | 110 to 111
32 | O=S1(=O)c2ccccc2C(CCCl)(CCCl)c2ccccc21 | 186 to 190
33 | COc1cc2scc(C(=O)Nc3cccnc3)c2cc1Br | 160 to 161
34 | CCOC(=O)c1cn(-c2ccccn2)cn1 | 118 to 119
35 | CS(=O)(=O)c1ccc(-c2nc(C(F)(F)F)[nH]c2-c2ccc3ccccc3c2)cc1 | 228 to 230
36 | O=[N+]([O-])c1c(Cl)sc(Cl)c1S(=O)(=O)Cl | 89 to 91
37 | CCCCCCC(=N)NC(=O)Nc1ccc(Cl)cc1 | 168 to 169
38 | COC(=O)/C=C/n1cnc2c(OC)cccc2c1=O | 203 to 208
39 | O=C(Oc1ccc(Cl)c(OCC2CC2(Cl)Cl)c1)N1CCSC1 (stereo not given) | 74 to 79.5
40 | Cn1nnc2cccc(C(O)c3cccc(F)c3)c21 (stereo not given) | 152
41 | NS(=O)(=O)c1cccc(-c2cc(-c3nc(-c4ccc(C(F)(F)F)cc4)cc(C(F)F)n3)ccn2)c1 | 234
42 | COC(=O)CCc1[nH]c(Cc2ccc(OCc3nc(-c4ccccc4)oc3C)cc2)nc1-c1ccccc1 | 128 to 129
43 | CCCC(Cl)(Cl)C(NC(=O)c1ccc(Cl)cc1)NC(=N[N+](=O)[O-])Nc1cccnc1 (stereo not given) | 198 to 200
44 | Cc1cc2c(cc1-c1cccc(C=O)c1)C(C)(C)CCC2(C)C | 104 to 105

Row | Compound | melting point [°C]
45 | CC(=O)c1nc2cc(C)c(F)cc2s1 | 152 to 153
46 | OCc1ccc(-c2nn(Cc3ccccc3)c3ccccc23)cc1 | 110 to 112
47 | CCN(CC)c1nc(C)nc(SC)c1NC(=O)CBr | 173 to 174
48 | COc1ccc(C(CC(C)=O)N2C(=O)c3cccc(N(S(C)(=O)=O)S(C)(=O)=O)c3C2=O)cc1OC (stereo not given) | 194 to 196
49 | CC(=O)OCCCCN(C)CCCN(C)C(=O)[C@@H]1CCCN1S(=O)(=O)c1ccc(Cl)c(COc2cccc3c(-n4ccnc4)cc(C)nc23)c1Cl | 88
50 | Cc1ccc(S(=O)(=O)NC(=O)Nc2cc(C)c(S(=O)(=O)C[N+](=O)[O-])c(C)c2)cc1 | 150 to 155
51 | CC(=O)OC1CSC(Oc2ccc(C)nc2)C(OC(C)=O)C1OC(C)=O (stereo not given) | 130
52 | CNC(=O)Oc1ccc(NC(=O)C(C)Cl)c(C)c1 (stereo not given) | 167 to 170
53 | Brc1cncc(OCc2ccccc2)c1 | 65 to 67
54 | O=C1O[C@@H](CNC(=O)C(F)(F)F)CN1c1ccc2c(c1)CCCc1cnoc1-2 | 203 to 205
55 | O=S(=O)(c1ccccc1)c1ccc(S)cc1 | 117
56 | COc1ccc(-c2ncsc2-c2ccc(OC)cc2)cc1 | 98 to 99
57 | COc1ccc(O)c2c1SC1CC3C(NC(=S)c4ccccc4)C(O)=C(C(N)=O)C(=O)C3(O)C(O)=C1C2=O (stereo not given) | 223
58 | Cc1nn(-c2c(Cl)cc(C(F)(F)F)cc2Cl)c(N)c1C=O | 169 to 172
59 | COc1cc(C(=O)NS(=O)(=O)c2ccccc2C)ccc1Cc1cn(C)c2ccc(C(=O)NC[C@H](C)CC(F)(F)F)cc12 | 142 to 144
60 | COc1cc(N)c([N+](=O)[O-])c(OC(F)F)c1OC | 141 to 142
61 | N#Cc1ccc(NC(=O)C(=O)N2CCC(Cc3ccccc3)CC2)cc1 | 109 to 112
62 | COCn1ccnc1C(O)(c1ccccc1)c1ccc(Cl)cc1Cl (stereo not given) | 161 to 162
63 | Nc1ccc2c(=O)n3c(nc2c1)C(=Cc1ccccc1Cl)CC3 | 275 to 280
64 | CCc1cccc(CC(=O)O)c1OCCn1cc(C(=O)NCc2ccc(Cl)cc2Cl)c(OC(C)C)n1 | 125 to 126

The next lines start with the values.

Row | melting point [°C] | Compound
65 | 195 to 197 | CCCCNC(=O)Nc1cc(Cl)ccc1C(=O)NCC1CCN(C(c2ccccc2)c2ccccc2)CC1
66 | 194 to 195 | CCc1c(-c2ccc(O)cc2)c2cc(C(C)=O)c3ccc(CO)c1n32
67 | 240 to 242 | Cc1cc(F)ccc1Oc1ccc(C2=CC=CN3CCS(=O)(=O)N=C23)cc1
68 | 94 to 95 | Oc1ccc(Oc2cccc(C(F)(F)F)n2)cc1
69 | 130 to 132 | O=C(CCc1cccc([N+](=O)[O-])c1)Nc1ccc(Nc2ccccc2)cc1
70 | 82 to 83 | Cc1ccccc1CCNC(=O)c1ccc(F)cc1
71 | 149 to 152 | CCC(=O)NC1Cc2cccc3c2N(CCC3)C1=O (stereo not given)
72 | 51 to 52 | CCOC(=O)Nc1ccc(C)c(Cl)c1
73 | 84 to 88 | CC(C)(C(=O)O)c1ccc(C(=O)C2CC2)cc1
74 | 65 | CC(C#N)c1ccc(Cl)nn1 (stereo not given)
75 | 198 to 204 | O=C1OC(=Cc2ccc(Cl)c([N+](=O)[O-])c2)c2ccccc21
76 | 141 to 143 | CC(C)(C)C(O)C(=Cn1ccnc1)Oc1ccc(Cl)cc1 (stereo not given)
77 | 262 to 264 | Cc1ccc(-n2c(-c3ccc(Br)cc3)ccc2-c2ccc(Br)cc2)cc1
78 | 111 to 113 | CC(=O)OCNC(=O)c1cc(C)c(C(c2cc(F)ccc2F)S(=O)(=O)c2ccc(F)cc2)cn1 (stereo not given)
79 | 178 to 183 | OCC1OC(n2cnc3c2N=CNCC3O)C(O)C1O (stereo not given)
80 | 191 to 193 | O=S1(=O)CCN2CCCC(c3ccc(Oc4ccc(C(F)(F)F)cc4)cc3)C2=N1 (stereo not given)
81 | 131 to 132 | CCOC(=O)c1sc(Oc2ccc(C(C)=O)c(O)c2)c2c1CCc1cnn(C)c1-2
82 | 200 to 201 | COc1cc(Nc2ccc(CCCc3ccc(Cl)c(Cl)c3)cc2)c(C(=O)O)cc1[N+](=O)[O-]

Row | melting point [°C] | Compound
83 | 85 to 86 | CCOC(=O)CN(CCOc1cc2cc3ncc(C#N)c(Nc4cc(OC)c(Cl)cc4C)c3cc2cc1OCC)CC(=O)OCC
84 | 222 to 224 | Cc1ccc(NC(=O)c2ccc(C(=O)Nc3ccccc3NC(=O)OC(C)(C)C)nc2)cc1Nc1nc(-c2cccnc2)cs1
85 | 80 to 82 | CCOC(=O)C(=Cc1ccc(F)cc1)C(C)=O
86 | 258 | CC12CCC(C(=O)O)=CC1=CCC1C2CCC2(C)C(C(=O)Cc3ccccc3)CCC12 (stereo not given)
87 | < 20 | CCOC(=O)C(C)(C)Oc1ccc(-c2ccc(CCNC(=O)c3c(OC)cccc3OC)cc2)cc1
88 | 212 to 214 | COc1ccc(C(=O)Nc2ccccc2)cc1NS(=O)(=O)c1ccc(C(=O)O)cc1
89 | 133 to 136 | CC(C)c1ccc(C(=O)Cc2cccs2)c(C(C)C)c1OS(N)(=O)=O
90 | 90 to 93 | CC1Cc2cc(OCc3ccccc3)c(O)cc2C(=O)C1C (stereo not given)
91 | 183 to 189 | COc1nc(CNC(=O)NS(=O)(=O)c2ccccc2S(=O)(=O)N(C)C)nc(OC)n1
92 | 113 to 114 | COC(=O)C(CC(F)(F)F)Nc1nc(-c2ccc(Br)cc2)cs1 (stereo not given)
93 | 121 | Cc1ccc(Br)c(C)c1C(=O)O
94 | 162 to 163 | CCOC(=O)COc1ccc(C(=O)Nc2ccccc2S(=O)(=O)c2ccccc2-c2nnn[nH]2)cc1
95 | 45 | O=[N+]([O-])c1cccc(C(O)CO)c1 (racemic)
96 | 252 to 254 | Cc1nc(-c2cccnc2)c2nc(-c3ccccc3)cc-2[nH]1
97 | 100 to 102 | CC(CCc1ccc(CC(=O)O)cc1)CC(=O)O (stereo not given)
98 | 44 to 47 | CCCCCCCCCCCCCCCCC[C@@H](C[C@@H]1OC(=O)[C@H]1CC)OC(=O)[C@H](CC(C)C)NC(=O)OCc1ccccc1
99 | 97 to 98 | CCCCCCCC(O)C1(C)OC(C)=C(O)C1=O (stereo not given)
100 | 42 to 43 | COc1ccc(N2C3CCC(C(=O)C3)C2c2ccc(Cl)cc2)cc1OC (stereo not given)
